The values below are quoted from earlier work in patent US20070071679A1, “Methylamine risks and treatment of hyperactivity, depression, and alcoholism with epinephrine-N-quinolines” (priority 2005, published 2007).

Data set [1] concerns sleep-waking cycles of cats. The following applies: for restoration of relative proportions of stages of sleep-waking cycles towards baseline: cats treated with monoamine reuptake inhibitor; for paradoxical (REM) sleep / active sleep: dose not given.
Data set [2] has as its system regional cerebral blood flow. The following applies: human beings.
For data set [3], the system named is paradoxical (REM) sleep in rats. The following applies: for percentage of paradoxical (REM) sleep: rats aged 34 months, between 4 and 12 hours after i.p. administration.
Data set [4] deals with active sleep in kittens.
Data set [5] has as its system cerebral blood flow. Conditions: cats.
Data set [6] deals with REM sleep of cats.
In data set [7] the test system is prepubertal boys and patients with narcolepsy or symptomatic hypersomnia.
Data set [8] deals with active sleep in kittens. The following applies: 6-OHDA pretreated, two weeks and one month of postnatal age.
Data set [9] relates to active sleep in a rat model. The following applies: during ontogenetic development.
The test system of data set [10] is human patients. The following applies: antihypertensive treatment.
The test system of data set [11] is limbic forebrain and cerebellum of rats.
The mark [12] stands for this setting: cats, 0.5 mg/kg of body weight intraperitoneally.

Read-outs that look alike come from different tables or passages of the source.

`CNCCCC1(c2ccccc2)CC(C)(C)c2ccccc21` (centres unmarked) [Prindamine]: in data set [1] (cats, i.p. administration), the REM sleep latency result is on record as “lengthening”. Also, the “proportion of time cats are in REM sleep” value in [1] (during 16 hours after i.p. administration) was “approximately 7%”.

Take `Cc1ccc(N(CC2=NCCN2)c2cccc(O)c2)cc1` [phentolamine]: the “regional cerebral blood flow” value in data set [2] is “does not affect”. Further, the “frequency of REM sleep episodes in sleep-waking cycles” value in data set [3] (rats) is listed as “increases the frequency of REM sleep episodes”. In addition, the “percentage of paradoxical (REM) sleep” value in data set [3] is “increase”. For the same molecule, the active sleep entry in data set [4] is on record as “increase active sleep”. Further, the cerebral blood flow result in data set [5] is recorded as “doubled”. In [1], the “restoration of relative proportions of stages of sleep-waking cycles towards baseline” value is “restores significantly”. Further, the “paradoxical (REM) sleep / active sleep” value in [1] (mature cats) is on record as “increase active sleep”. Besides, the “duration of the episodes cats were in REM sleep” value in data set [6] (REM sleep deprivation plus 20 mg/kg i.p. at the beginning of recovery, n.s.) is 6.5 ± 1.9 min. For the same molecule, the “number of REM episodes” value in data set [6] (given at the beginning of recovery after REM sleep deprivation) is “did not affect”.

As for arginine-vasotocin, the “rapid eye movement sleep” value in data set [7] is given as “induce rapid eye movement sleep”.

Take `CC(C)NCC(O)COc1cccc2[nH]ccc12` (centres unmarked) [pindolol]: in data set [1] (cats, 0.1 mg/kg of body weight intraperitoneally), the “amount of REM sleep” value is “not”. Also, in [1] (setting [12]), the “amount of REM sleep” value is on record as “increases the amount of REM sleep” and the “amount of drowsy wakefulness” value is “increases the amount of drowsy wakefulness”.

For `COc1cc2nc(N3CCN(C(=O)c4ccco4)CC3)nc(N)c2cc1OC` [prazosin], the “percentage of paradoxical (REM) sleep” value in data set [3] was “increase”. The active sleep result in data set [8] (0.5 mg/kg i.p.) is reported as “does not affect active sleep”. Further, the “restoration of relative proportions of stages of sleep-waking cycles towards baseline” value in data set [1] is reported as “not”. In addition, in data set [1] (mature cats, 0.5 mg/kg i.p.), the paradoxical sleep entry is recorded as “increases paradoxical sleep”. Also, in data set [1] (mature cats), the “paradoxical (REM) sleep / active sleep” value is recorded as “increases paradoxical (REM) sleep”.

For `CC(C)NC[C@H](O)COc1ccc(O)cc1` [prenalterol], in data set [1] (mature cats), the “paradoxical (REM) sleep / active sleep” value is on record as “increases the amount of paradoxical (REM) sleep”.

In the case of `Clc1cccc(Cl)c1N=C1NCCN1` [clonidine], in data set [8] (0.01 mg/kg i.p.), the active sleep result is given as “suppresses active sleep”. Also, the “paradoxical sleep (REM sleep)” value in data set [1] (mature cats, 0.01 mg/kg i.p.) was “suppresses paradoxical sleep”.

Regarding `COC(=O)[C@@H]1[C@H]2C[C@H]3c4[nH]c5ccccc5c4CCN3C[C@@H]2CC[C@@H]1O` [yohimbine], in data set [1], the “restoration of relative proportions of stages of sleep-waking cycles towards baseline” value is reported as “not”.

Take `CC(C)NCC(O)c1ccc(O)c(O)c1` (centres unmarked) [isoproterenol]: the active sleep result in [9] is “increase active sleep”.

Consider `COC(=O)[C@H]1[C@H]2C[C@@H]3c4[nH]c5cc(OC)ccc5c4CCN3C[C@H]2C[C@@H](OC(=O)c2cc(OC)c(OC)c(OC)c2)[C@@H]1OC` [reserpine], for which the “share of treated patients with clinical depression” value in [10] was “one fourth”.

With `CC(C)NCC(O)COc1cccc2ccccc12` (centres unmarked) [propranolol], the “restoration of relative proportions of stages of sleep-waking cycles towards baseline” value in data set [1] is “not”. Also, in data set [11] (after exposure during early development), the “concentrations of serotonin and 5-HIAA” value is recorded as “lack of effect”. In addition, the “content of norepinephrine in the limbic forebrain and cerebellum” value in data set [11] (at the age of five months after early postnatal exposure) is given as “increased content of norepinephrine”.
